Assay results reported in PubChem BioAssay AID1259411 (Chemical Carcinogenesis Research Information System (CCRIS), 2018).
Active and inactive are the calls of the source. No rule for the calls is given here.

System: rodent carcinogenicity bioassays, tumor incidence
Assay: CCRIS carcinogenicity studies
Conditions: Species: MOUSE
Method in brief: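 Archive of carcinogenicity, mutagenicity, tumor promotion and tumor inhibition results drawn from journals, NCI reports and other sources, expert-reviewed; covers 1985-2011 and is no longer updated.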

In the case of c1ccc2c(c1)cc1ccc3cccc4ccc2c1c34, the carcinogen call (Strain/Sex: C3H/MALE, Route: DERMAL, Dose: 0.15-470 UG, 3/WK FOR LIFE, Tumor Site: Type of Lesion: INTEGUMENTARY SYSTEM (SKIN)) was “active; positive”, the carcinogen call (Strain/Sex: C3H/MALE, Route: SUBCUTANEOUS, Dose: 0.00195-8.0 MG, SINGLE DOSE, Tumor Site: Type of Lesion: INJECTION SITE: SARCOMA) was “active; positive” and the carcinogen call (Strain/Sex: C3H, Route: DERMAL, Dose: 0.00002-0.02%, 3/WK FOR UP TO 80 WK, Tumor Site: Type of Lesion: INTEGUMENTARY SYSTEM (SKIN)) was “active; positive”. The carcinogen call (Strain/Sex: C57BL/FEMALE, Route: INTRATRACHEAL, Dose: 0, 1 MG ON CHARCOAL POWDER INSTILLED 8 TIMES (STUDY DURATION: 13 WK), Tumor Site: Type of Lesion: LUNG: SQUAMOUS CELL CARCINOMA OR ADENOCARCINOMA) was “active; positive”, the carcinogen call (Strain/Sex: C57BL/FEMALE, Route: SUBCUTANEOUS, Dose: 0, 0.5, 1 MG IN 1% AQUEOUS GELATIN INJECTED IN THE SCAPULAR REGION OF NEWBORN MICE ONCE (STUDY DURATION: 9 WK), Dose: 0, 0.5, 1 MG IN 1% AQUEOUS GELATIN INJECTED IN THE SCAPULAR REGION OF NEWBORN MICE ONCE (STUDY DURATION: 9 WK)) was “inactive; negative” and the carcinogen call (Strain/Sex: C57BL/MALE, Route: SUBCUTANEOUS, Dose: 0, 0.5, 1 MG IN 1% AQUEOUS GELATIN INJECTED IN THE SCAPULAR REGION OF NEWBORN MICE ONCE (STUDY DURATION: 9 WK), Dose: 0, 0.5, 1 MG IN 1% AQUEOUS GELATIN INJECTED IN THE SCAPULAR REGION OF NEWBORN MICE ONCE (STUDY DURATION: 9 WK)) was “inactive; negative”. The carcinogen call (Strain/Sex: C57BL, Route: DERMAL, Dose: 0.0001-0.5%, 3/WK, Tumor Site: Type of Lesion: INTEGUMENTARY SYSTEM (SKIN)) was “active; positive”, the carcinogen call (Strain/Sex: C57BL, Route: SUBCUTANEOUS, Dose: 0.00004, 0.0004, 0.004, 0.04 MG, SINGLE DOSE, Tumor Site: Type of Lesion: INJECTION SITE: SARCOMA) was “active; positive” and the carcinogen call (Strain/Sex: C57BR/CDJ/FEMALE, Route: SUBCUTANEOUS, Dose: 0, 0.5, 1 MG IN 1% AQUEOUS GELATIN INJECTED IN THE SCAPULAR REGION OF NEWBORN MICE ONCE (STUDY DURATION: 9 WK), Dose: 0, 0.5, 1 MG IN 1% AQUEOUS GELATIN INJECTED IN THE SCAPULAR REGION OF NEWBORN MICE ONCE (STUDY DURATION: 9 WK)) was “inactive; negative”. The carcinogen call (Strain/Sex: C57BR/CDJ/MALE, Route: SUBCUTANEOUS, Dose: 0, 0.5, 1 MG IN 1% AQUEOUS GELATIN INJECTED IN THE SCAPULAR REGION OF NEWBORN MICE ONCE (STUDY DURATION: 9 WK), Dose: 0, 0.5, 1 MG IN 1% AQUEOUS GELATIN INJECTED IN THE SCAPULAR REGION OF NEWBORN MICE ONCE (STUDY DURATION: 9 WK)) was “inactive; negative”, the carcinogen call (Strain/Sex: CAF1, Route: DERMAL, Dose: 0.0005, 0.001, 0.5%, 3/WK, Tumor Site: Type of Lesion: INTEGUMENTARY SYSTEM (SKIN): PAPILLOMA) was “active; positive” and the carcinogen call (Strain/Sex: CFW/MALE, FEMALE, Route: ORAL, Dose: 30-250 PPM IN DIET FOR 70-197 D, Tumor Site: Type of Lesion: STOMACH) was “active; positive”. For the same compound, the carcinogen call (Strain/Sex: CFW/MALE, FEMALE, Route: ORAL, Dose: 250 PPM IN DIET FOR 1-30 D, OBSERVED UNTIL 103-107 D, Tumor Site: Type of Lesion: FORESTOMACH) was “active; positive”, the carcinogen call (Strain/Sex: CFW, Route: SUBCUTANEOUS, Dose: 0.001-2 MG, SINGLE DOSE, Tumor Site: Type of Lesion: INJECTION SITE: FIBROSARCOMA) was “active; positive” and the carcinogen call (Strain/Sex: DBA/2/FEMALE, Route: INTRATRACHEAL, Dose: 0, 1 MG ON CHARCOAL POWDER INSTILLED 8 TIMES (STUDY DURATION: 13 WK)) was “inactive; negative”. For the same compound, the carcinogen call (Strain/Sex: EU-PIM-1/MALE, Route: GAVAGE, Dose: 0, 4.3, 13, 39 MG/KG BW IN 0.1 ML SOY OIL 3/WK FOR 13 WK (STUDY DURATION: 291 D), Dose: 0, 4.3, 13, 39 MG/KG BW IN 0.1 ML SOY OIL 3/WK FOR 13 WK (STUDY DURATION: 291 D), Tumor Site: Type of Lesion: LYMPHATIC SYSTEM: LYMPHOMA, FORESTOMACH: TUMOR) was “active; positive”, the carcinogen call (Strain/Sex: ICR/FEMALE, Route: INTRAPERITONEAL, Dose: 0, 59.5 UG TOTAL DOSE (8.5 UG/5 µL, 17 UG/10 µL, 34 UG/20 µL DMSO ON DAYS 1, 8 AND 15) ADMINISTERED TO NEWBORN ANIMALS (, Tumor Site: Type of Lesion: LUNG: ADENOMA) was “active; positive” and the carcinogen call (Strain/Sex: ICR/MALE, Route: INTRAPERITONEAL, Dose: 0, 59.5 UG TOTAL DOSE (8.5 UG/5 µL, 17 UG/10 µL, 34 UG/20 µL DMSO ON DAYS 1, 8 AND 15) ADMINISTERED TO NEWBORN ANIMALS (, Tumor Site: Type of Lesion: LUNG: ADENOMA) was “active; positive”. The carcinogen call (Strain/Sex: N:GP(S)/FEMALE, Route: INTRATRACHEAL, Dose: 0, 1 MG ON CHARCOAL POWDER INSTILLED 8 TIMES (STUDY DURATION: 13 WK)) was “inactive; negative”, the carcinogen call (Strain/Sex: N:GP(S)/FEMALE, Route: SUBCUTANEOUS, Dose: 0, 40, 62.5, 125, 250, 500, 1000 UG FOR 9 WK (STUDY DURATION: 9 WK), Dose: 0, 40, 62.5, 125, 250, 500, 1000 UG FOR 9 WK (STUDY DURATION: 9 WK), Tumor Site: Type of Lesion: LUNG: ADENOMA) was “active; positive” and the carcinogen call (Strain/Sex: N:GP(S)/MALE, Route: SUBCUTANEOUS, Dose: 0, 40, 62.5, 125, 250, 500, 1000 UG FOR 9 WK (STUDY DURATION: 9 WK), Dose: 0, 40, 62.5, 125, 250, 500, 1000 UG FOR 9 WK (STUDY DURATION: 9 WK), Tumor Site: Type of Lesion: LUNG: ADENOMA) was “active; positive”.
